Patent US20060147456A1, “Induction of apoptosis in toll-like receptor expressing tumor cells” (priority 2004, published 2006)

Assays:
Cama-1 cells [1] = assay: BrdU incorporation and subdiploid DNA content by FACS; type: cell-based, human
Experimental: (§1) Cell recovery after treatment with TLR ligands was measured by crystal violet staining (Sigma-Aldrich). Cells were plated at 10^4 cells/well in 96 well plates. After 72 hours of culture either with or without TLR ligand, the cells were washed with PBS, fixed in 6% formaldehyde (Sigma-Aldrich) for 20 minutes, washed twice, and then stained with 0.1% crystal violet for 10 minutes. After washes and incubation in 1% SDS for 1 hour, the absorbance was read at 605 nm on a Vmax plate reader (Molecular Devices, Sunnyvale, Calif.). Annexin V staining was performed with an annexin-FITC apoptosis detection kit (BD Pharmingen, San Diego, Calif.) according to the manufacturer's instructions. Sub-diploid cells were detected by staining with 3 μg/mL propidium iodide (PI) (Molecular probes, Eugene, Oreg.), after overnight permeabilization in 70% ethanol. Fluorescence was analyzed by flow cytometry on a FACScalibur (Becton Dickinson, Mountain View, Calif.) equipped with a doublet-discrimination module and using Celiquest Pro software (Becton Dickinson).
Two cell lines, the colon cancer cell line LS174T and the breast cancer cell line Cama-1, were analyzed for death and cell cycle changes. Cells were cultured for 48 hours in either the presence or absence of Poly IC (5 μg/ml). Following a 30-minute pulse with 1 μg/ml bromodeoxyuridine (BrdU), the cells were fixed overnight at 4° C. in 70% ethanol before staining with FITC-coupled anti-BrdU monoclonal antibody and 3 μg/ml propidium iodide. Cell death and the cell cycle were analyzed by flow cytometry (FACS). BrdU incorporation is a measure of proliferation, whereas propidium iodide staining allows the quantification of DNA content, in particular the subdiploid cell population undergoing apoptosis.
TLR3 was analyzed for its role in Poly IC induced apoptosis. Cama-1 cells were transfected with siRNA corresponding to either: an irrelevant sequence (Scr RNA; sequence: ACUAGUUCACGAGUCACCUtt) (SEQ ID NO: 21), or hTLR3 (sequence: CAGUGUUGAACCUUACCCAtt) (SEQ ID NO: 22). siRNA transfections were performed for 5 hours in 1 mL OptiMEM™ medium containing 3 μg/mL lipofectamine 2000 and 100 nM siRNA. Cells were then washed in phosphate buffered saline solution (PBS) and cultured for 72 hours in complete medium before subsequent 48 hour treatment with 5 μg/mL Poly IC. The cell cycle was then analyzed by FACS after staining with ethidium bromide, as described in Example 3.

Cama-1 cells [2] = assay: Apoptosis by annexin V staining and flow cytometry; type: cell-based, human
Experimental: as §1
Cama-1 cells were plated in 6 well plates at 3×10^5 cells per well. After overnight adherence, siRNA transfections were performed for 5 hours in OptiMEM medium (Life technologies) containing 3 μg/mL lipofectamine 2000 (Invivogen) and 100 nM siRNA. Cells were then washed and cultured for 72 hours in complete medium before treatment with Poly IC and apoptosis analysis. siRNA duplexes specific for TLR3, PKR, IRAK-4, TRAF6 and p65 were purchased from Dharmacon (Lafayette, Colo.) as SMART-Pools. TRIF siRNA was purchased from the same supplier as single oligoduplexes (5′-GCUCUUGUAUCUGMGCAC-3′) (SEQ ID NO: 23). TLR3 and TRIF expression was assessed by PCR (35 cycles: 1 min 94° C., 1 min 55° C., 2 min 72° C.) with Taq PCR ReadyMix (Sigma-Aldrich) using following primers: […]
To further investigate the effect of Poly IC treatment on breast tumor cell lines, cell death was analyzed in Cama-1 cells by annexin V staining. Cells were cultured for 24 hours either with or without 5 μg/ml of Poly IC. Apoptosis was measured by annexin V staining and flow cytometry.
We also tried to determine the kinetics of Poly IC induced apoptosis. Cama-1 cells were cultured either with or without 5 μg/ml or 50 ng/ml of Poly IC. The percentage of apoptotic (annexin positive) cells in the culture were measured during the following 30 hours. […] Specifically, Poly IC triggered apoptosis in Cama-1 cells beginning 9 hours after Poly IC addition and reaching up to 80% apoptotic cells after 30 hours of treatment.
Poly AU was analyzed for its effects on apoptosis. Cama-1 cells were cultured for 48 hours either with PBS or with increasing concentrations of Poly AU ranging from 5 ng/ml to 50 μg/ml. Apoptosis was analyzed by measuring the percentage of annexin V positive cells.
In order to determine the pathway of Poly IC induced Cama-1 cell toxicity, RNA interference was used to efficiently downregulate expression of TRIF and PKR. Cama-1 cells were plated in 6 well plates at 3×10^5 cells per well. After overnight adherence, siRNA transfections were performed for 5 hours in OptiMEM medium (Life technologies) containing 3 μg/mL lipofectamine 2000 (Invivogen) and 100 nM siRNA. Cells were transfected with either MOCK (water), control scrambled duplex (scr) siRNA, TRIF siRNA or PKR siRNA.
72 hours after siRNA transfection, Cama-1 cells were cultured for another 24 hours either with or without 5 μg/ml Poly IC. Apoptosis was measured by annexin V staining and expressed as a percentage of apoptotic cells in culture. On average, 10% of control cells (MOCK and scr) that were untreated underwent apoptosis. In contrast, about 75% of control cells (MOCK and scr) that were treated with Poly IC underwent apoptosis.
To further investigate TLR3 mediated cytotoxicity, the involvement of the signaling molecules IRAK4 and TRAF6, both downstream mediators of TLR signaling, were assessed. Cama-1 cells were plated in 6 well plates at 3×10^5 cells per well. […]

polyinosinic-polycytidylic acid [Poly IC]
percentage of cells with subdiploid DNA content (Cama-1 cells [1]; Cama-1, 48 h with 5 μg/ml Poly IC (4% before treatment)): 17% | percentage of cells that incorporated BrdU (Cama-1 cells [1]; Cama-1, 48 h with 5 μg/ml Poly IC (15% before treatment)): 2% | percentage of subdiploid cells (Cama-1 cells [1]; Cama-1 transfected with hTLR3 siRNA, 48 h with 5 μg/mL Poly IC): 3% | percentage of subdiploid cells (Cama-1 cells [1]; Cama-1 transfected with scrambled RNA, 48 h with 5 μg/mL Poly IC (from 2%)): 45% | apoptotic (annexin positive) cells after 30 hours (Cama-1 cells [2]; Cama-1, 5 μg/ml or 50 ng/ml Poly IC, untreated 15%): 80% | percentage of apoptotic cells (Cama-1 cells [2]; Cama-1, 25 μM z-VAD-fmk pre-incubation 1 h, 24 h, 5 μg/ml Poly IC or 25 ng/ml TNF-α): 30% | cells stained by Annexin V (Cama-1 cells [2]; Cama-1, 24 h, 5 μg/ml Poly IC): over 70% | percentage of apoptotic cells (Cama-1 cells [2]; Cama-1, DMSO pre-incubation 1 h, 24 h, 5 μg/ml Poly IC or 25 ng/ml TNF-α): 70% | percentage of apoptotic cells (Cama-1 cells [2]; Cama-1, absence of antibody (Example 11), 24 h, 5 μg/ml Poly IC or 1000 U/ml each IFN-α/IFN-β): 70% | percentage of apoptotic cells (Cama-1 cells [2]; Cama-1, absence of antibody (Example 12), 5 μg/ml Poly IC or 25 ng/ml TNF-α): 70% | beginning of apoptosis after Poly IC addition (Cama-1 cells [2]; Cama-1, kinetics over 30 hours): 9 h | percentage of apoptotic cells (Cama-1 cells [2]; Cama-1, pre-incubated 1 h with 20 μg/ml anti-IFN R1 mAb, 24 h, 5 μg/ml Poly IC or 1000 U/ml IFN-α/IFN-β): 30% | percentage of apoptotic cells (Cama-1 cells [2]; Cama-1, pre-incubated 1 h with 20 μg/ml isotype control mouse IgG1, 24 h, 5 μg/ml Poly IC or 1000 U/ml IFN-α/IFN-β): 70% | percentage of apoptotic cells (Cama-1 cells [2]; Cama-1, pre-incubated with 10 μg/ml CHX, 5 μg/ml Poly IC or 25 ng/ml TNF-α, untreated 15%): 40% | percentage of apoptotic cells (Cama-1 cells [2]; Cama-1, pre-incubated with 20 μg/ml neutralizing anti TNF-α mAb, 5 μg/ml Poly IC or 25 ng/ml TNF-α): 65% | percentage of apoptotic cells (Cama-1 cells [2]; Cama-1 control cells (MOCK and scr), 24 h with 5 μg/ml Poly IC, untreated 10%): about 75% | percentage of apoptotic cells (Cama-1 cells [2]; Cama-1 control cells (scr), Example 10, 24 h with 5 μg/ml Poly IC, untreated 10%): about 75% | percentage of apoptotic cells (Cama-1 cells [2]; Cama-1 scr group, 24 h, Poly IC 50 ng/ml): 20% | percentage of apoptotic cells (Cama-1 cells [2]; Cama-1 scr group, 24 h, Poly IC 5 μg/ml): 70% | percentage of apoptotic cells (Cama-1 cells [2]; Cama-1 siRNA p65 group, 24 h, Poly IC 50 ng/ml): 10% | percentage of apoptotic cells (Cama-1 cells [2]; Cama-1 siRNA p65 group, 24 h, Poly IC 5 μg/ml): 20%
